In assay [1] the test system is Tissue. Put plainly: Bronchodilatory activity in acetylcholine-precontracted Cavia porcellus (guinea pig) trachea at 30 ug/ml. It is filed as functional.
The subject of assay [2] is Tissue. Put plainly: Bronchodilatory activity in histamine-precontracted Cavia porcellus (guinea pig) trachea at 30 ug/ml. The class given is functional.

Consider `Cn1c(=O)c2c(ncn2CCO)n(C)c1=O` [ETOFYLLINE], for which the Activity in the assay with Tissue [1] and in the assay with Tissue [2] was 40% each time. `Cc1nc2ccccc2c(=O)n1-c1ccccc1` yielded an Activity with Tissue [2] of 100%.

`CCCc1nc2ccccc2c(=O)n1-c1ccc(F)cc1` came in with an Activity in the assay with Tissue [2] of 10%. Still for that read-out and setting: the value for `Cc1nc2ccccc2c(=O)n1-c1ccc(F)cc1` was 80%. With `O=c1c2cc3c(cc2nc2n1CCCCC2)OCO3`, the Activity with Tissue [1] and in the assay on Tissue [2] was 100% in each case.

For the molecule `O=c1c2ccccc2nc2n1CCCC2`, the Activity in the assay with Tissue [2] is on record as 40%. On the same count and under the same terms, in the case of `O=c1c2ccccc2nc2n1CCC2` [DEOXYVASICINONE] it was 20%.

In the assay on Tissue [2], `CCc1nc2ccccc2c(=O)n1-c1ccc(F)cc1` displayed an Activity of 20%. Take `O=c1c2cc3c(cc2nc2n1CCCC2)OCO3`: the Activity in the assay with Tissue [1] is 40%; with Tissue [2] it was 50%. In the assay on Tissue [2], `O=C1CC(c2ccccc2)N=C2CCCCN12` (centres undefined) registered an Activity of 20%. `CCc1nc2ccccc2c(=O)n1-c1ccccc1`: the Activity in the assay on Tissue [2] amounted to 100%.

Regarding `CCCc1nc2ccccc2c(=O)n1-c1ccccc1`, the Activity in the assay with Tissue [2] was determined as 50%. On to `O=c1c2ccccc2nc2n1CCCCC2`, for which the Activity with Tissue [1] and in the assay with Tissue [2] was 100% throughout. For `O=C1CC(c2ccccc2)N=C2CCCCCN12` (centres undefined), the figures for the Activity in the assay with Tissue [1] and with Tissue [2] were 30% and 50%, respectively.

Source of the values: ChEMBL document CHEMBL3044791, “Synthesis and Structure-Activity Relationships of Vasicine Analogues as Bronchodilatory Agents” (2005).
